Source: patent US10568893B2, “Methods for treating inflammation, autoimmune disorders and pain” (BRIGHAM YOUNG UNIVERSITY, priority 2013, dated 2020)

Experiments:
[1] = tested on: IL1A (Interleukin-1 alpha); assay: Inflammation gene regulation, mRNA q-PCR panel; type: cell-based; settings: mRNA by q-PCR, 8 hours treatment, primary human MSC (dendritic cells also described); CSA-13 at 5.0 μM
Description: (§1) Cells were purchased from Lonza.com and used fresh for each test using recommended media and culture conditions. After treatment, mRNA was isolated using Qiagen RNeasy Mini Kit®, and quantified using a NanoDrop 2000® by UV at 260 nm and 260/280 ratio for purity. cDNA was made using a First Strand Kit® from SABiosciences and processed for real time PCR using a kit from the same company for selected analysis of wound healing pathways. Results from q-PCR were uploaded to the SABiosciences site and to Ingenuity.com web site for analysis and pathway mapping. On day 1, primary human MSC cells were plated at 200,000 cells/well using 6-well plates with 3 ml of recommended media—hMSC Basal Medium+BulletKit (50 ml Growth Supplement, 10 ml L-Glutamine and 0.5 ml Gentamicin Sulfate Amphotercin-B) for 24 hours. Only early passages of cells were used, and never from frozen stock. On day 2, cells were treated with compounds dissolved in DMSO diluted 1:1000 or more to avoid effects of the solvent. […] Treatment lasted 8 hours, and was followed by RNA isolation using QIAGEN RNeasy Mini Kit® (74104). RNA was measured at 260/280 nm using a NanoDrop 2000® and normalized to 2.4 ng per well, cDNA preparation was done using QIAGEN First Strand kit 330401. q-PCR was run as absolute quantification and threshold set at 0.1 units. Dendritic cells were plated at 500,000 cells/well using 24-well plate with 500 μl of Lonza LGM-3 Complete Growth Medium with and without compound. Treatment lasted 8 hours, and was followed by RNA isolation using QIAGEN RNeasy Mini Kit® (74104). RNA was measured at 260/280 nm using NanoDrop2000® and normalized to 2.4 ng per well, cDNA preparation was done using QIAGEN First Strand kit 330401. PCR was run as absolute quantification and threshold set at 0.1 units.

[2] = tested on: IL1B (Interleukin-1 beta); assay: Inflammation gene regulation, mRNA q-PCR panel; type: cell-based; settings: mRNA by q-PCR, 8 hours treatment, primary human MSC (dendritic cells also described); CSA-13 at 5.0 μM
Description: as §1

[3] = tested on: IRAK2 (Interleukin-1 receptor-associated kinase 2); assay: Inflammation gene regulation, mRNA q-PCR panel; type: cell-based; settings: mRNA by q-PCR, 8 hours treatment, primary human MSC (dendritic cells also described); CSA-13 at 5.0 μM
Description: as §1

[4] = tested on: NFKB1 (Nuclear factor of kappa light polypeptide gene enhancer in B-cells 1); assay: Inflammation gene regulation, mRNA q-PCR panel; type: cell-based; settings: mRNA by q-PCR, 8 hours treatment, primary human MSC (dendritic cells also described); CSA-13 at 5.0 μM
Description: as §1

[5] = tested on: NFKB2 (Nuclear factor of kappa light polypeptide gene enhancer in B-cells 2); assay: Inflammation gene regulation, mRNA q-PCR panel; type: cell-based; settings: mRNA by q-PCR, 8 hours treatment, primary human MSC (dendritic cells also described); CSA-13 at 5.0 μM
Description: as §1

[6] = tested on: NFKBIA (Nuclear factor of kappa light polypeptide gene enhancer in B-cells inhibitor, alpha); assay: Inflammation gene regulation, mRNA q-PCR panel; type: cell-based; settings: mRNA by q-PCR, 8 hours treatment, primary human MSC (dendritic cells also described); CSA-13 at 5.0 μM
Description: as §1

[7] = tested on: TLR2 (Toll-like receptor 2); assay: Inflammation gene regulation, mRNA q-PCR panel; type: cell-based; settings: mRNA by q-PCR, 8 hours treatment, primary human MSC (dendritic cells also described); CSA-13 at 5.0 μM
Description: as §1

[8] = tested on: TLR4 (Toll-like receptor 4); assay: Inflammation gene regulation, mRNA q-PCR panel; type: cell-based; settings: mRNA by q-PCR, 8 hours treatment, primary human MSC (dendritic cells also described); CSA-13 at 5.0 μM
Description: as §1

[9] = tested on: TLR6 (Toll-like receptor 6); assay: Inflammation gene regulation, mRNA q-PCR panel; type: cell-based; settings: mRNA by q-PCR, 8 hours treatment, primary human MSC (dendritic cells also described); CSA-13 at 5.0 μM
Description: as §1

[10] = tested on: TLR8 (Toll-like receptor 8); assay: Inflammation gene regulation, mRNA q-PCR panel; type: cell-based; settings: mRNA by q-PCR, 8 hours treatment, primary human MSC (dendritic cells also described); CSA-13 at 5.0 μM
Description: as §1

[11] = tested on: TLR9 (Toll-like receptor 9); assay: Inflammation gene regulation, mRNA q-PCR panel; type: cell-based; settings: mRNA by q-PCR, 8 hours treatment, primary human MSC (dendritic cells also described); CSA-13 at 5.0 μM
Description: as §1

[12] = tested on: TNF (Tumor necrosis factor); assay: Inflammation gene regulation, mRNA q-PCR panel; type: cell-based; settings: mRNA by q-PCR, 8 hours treatment, primary human MSC (dendritic cells also described); CSA-13 at 5.0 μM
Description: as §1

[13] = tested on: TNFRSF1A (Tmor necrosis factor receptor superfamily member 1A); assay: Inflammation gene regulation, mRNA q-PCR panel; type: cell-based; settings: mRNA by q-PCR, 8 hours treatment, primary human MSC (dendritic cells also described); CSA-13 at 5.0 μM
Description: as §1

alveolar bone loss = settings: topical application; cited from earlier work

## CCCCCCCCOC(=O)CC[C@@H](C)[C@H]1CC[C@H]2[C@@H]3[C@H](OC(=O)CCN)C[C@@H]4C[C@H](OC(=O)CCN)CC[C@]4(C)[C@H]3C[C@H](OC(=O)CCN)[C@]12C [CSA-44]
[1]
  Fold Regulation IL1A: −6.0325
[2]
  Fold Regulation IL1B: −28.5329
[3]
  Fold Regulation IRAK2: −31.8021
[4]
  Fold Regulation NFKB1: −3.2891
[5]
  Fold Regulation NFKB2: −2.2766
[6]
  Fold Regulation NFKBIA: −52.206
[7]
  Fold Regulation TLR2: −15.7179
[8]
  Fold Regulation TLR4: −2.977
[9]
  Fold Regulation TLR6: −2.392
[10]
  Fold Regulation TLR8: −8.2256
[11]
  Fold Regulation TLR9: −1.8905
[12]
  Fold Regulation TNF: −25.9588
[13]
  Fold Regulation TNFRSF1A: −2.2461

## CCCCCN(CCCCC)CCC[C@@H](C)[C@H]1CC[C@H]2[C@@H]3[C@H](OCCCN)C[C@@H]4C[C@H](OCCCN)CC[C@]4(C)[C@H]3C[C@H](OCCCN)[C@]12C [CSA-90]
[1]
  Fold Regulation IL1A: −6.96
[2]
  Fold Regulation IL1B: −3.6734
[3]
  Fold Regulation IRAK2: −52.0069
[4]
  Fold Regulation NFKB1: −4.718
[5]
  Fold Regulation NFKB2: −2.5474
[6]
  Fold Regulation NFKBIA: −26.0352
[7]
  Fold Regulation TLR2: −13.6933
[8]
  Fold Regulation TLR4: −3.4278
[9]
  Fold Regulation TLR6: −2.0885
[10]
  Fold Regulation TLR8: −4.1972
[11]
  Fold Regulation TLR9: −1.8613
[12]
  Fold Regulation TNF: −4.8514
[13]
  Fold Regulation TNFRSF1A: −7.3196

## CN/C(=N/CCSCc1nc[nH]c1C)NC#N [cimetidine]
Alveolar bone loss
  Alveolar bone loss: reduce alveolar bone loss
